Test results published in the NIST ThermoML archive (doi:10.1016/j.jct.2007.09.010).
± gives the expanded uncertainty stated by the source.

What was measured:
[1] = refractive index (other wavelength) (dimensionless); conditions: 101.32 kPa, Liquid, Wavelength=632.8 nm, Standard Abbe refractometry
[2] = refractive index (other wavelength) (dimensionless); xn = mol fraction of the nth substance listed; conditions: 293.6 K, 101.32 kPa, Liquid, Wavelength=632.8 nm

N#Cc1ccccc1 [benzonitrile]
[1]
Conditions	refractive index
283.93 K	1.5294 ± 0.0004
285.77 K	1.5285 ± 0.0004
287.73 K	1.5276 ± 0.0004
289.74 K	1.5266 ± 0.0004
291.66 K	1.5256 ± 0.0004
293.65 K	1.5247 ± 0.0004

N#Cc1ccccc1 [benzonitrile] + CCCCCCCCCCCC
[2]
Conditions	refractive index
x1 = 0.0994	1.4247 ± 0.0007
x1 = 0.195	1.4302 ± 0.0007
x1 = 0.2945	1.436 ± 0.0007
x1 = 0.3954	1.4434 ± 0.0007
x1 = 0.4923	1.4507 ± 0.0007
x1 = 0.5859	1.4608 ± 0.0007
x1 = 0.6782	1.4711 ± 0.0007
x1 = 0.768	1.4832 ± 0.0007
x1 = 0.8871	1.5022 ± 0.0007

CCCCCCCCCCCC [dodecane]
[1]
Conditions	refractive index
282.19 K	1.4249 ± 0.0004
284.24 K	1.424 ± 0.0004
286.06 K	1.4233 ± 0.0004
288.08 K	1.4225 ± 0.0004
289.91 K	1.4217 ± 0.0004
291.91 K	1.4207 ± 0.0004
293.94 K	1.4199 ± 0.0004
